Here are results for one molecule from patent US10669238B2, “Irreversible bruton's tyrosine kinase inhibitor” (HEFEI INSTITUTES OF PHYSICAL SCIENCE, CHINESE ACADEMY OF …, priority 2016, dated 2020).

This experiment deals with Pfeiffer (human diffuse large cell lymphoma B lymphocytes). In words: Cell cycle distribution by flow cytometry in Pfeiffer. Type of experiment: cell-based. To be noted: 10 μM, 48 hours. The protocol:
Effect of Compound 1 on cell cycle distribution was examined respectively in Pfeiffer (human diffuse large cell lymphoma B lymphocytes, purchased from Cobioer Biosciences Co., LTD (Nanjing)) and U2932 (B-cell lymphoma cells, purchased from ATCC) cells in order to study the growth cycle to which the cells were blocked upon compound administration. The above cells were treated with various concentrations (0.5 μM, 1 μM, 5 μM, 10 μM) of Compound 1, 10 μM of PC132765 and 10 μM of Compound 6 (FIG. 4a) or 1 μM of Compound 6 (FIG. 4b) for 48 hours, and then cells were collected and washed twice with 1×PBS buffer, and fixed with 75% ethanol at −20° C. for 24 hours, washed again with 1×PBS buffer twice, followed by addition of 0.5 mL 1×PBS buffer and 0.5 mL of PI dyeing liquor (purchased from BD Bioscience, USA), and then the cells were placed in the dark at 37° C. for dyeing 15 minutes and the cell cycle distribution was detected by flow cytometry (BD FACS Calibur).
Experiments shown in FIGS. 4a-4b reflected that Compound 1 influenced the cell cycle of both two cell strains.

Each structure is given as a SMILES string.

Take `C=CC(=O)Nc1cc(Nc2cc(-c3cccc(NC(=O)c4ccc(C(C)(C)C)cc4)c3C)cn(C)c2=O)ccc1C(=O)N1CCOCC1` [Compound 1, N-(3-(5-((3-acrylamide-4-(morpholin-4-carbonyl)phenyl)amino)-1-methyl-6-oxo-1,6-dihydropyridin-3-yl)-2-methylphenyl)-4-(tert-butyl)benzamide]: the “effect on cell cycle” value was “significant cell cycle arrest in G0-G1”.
